CCCSc1ncc(C[C@H](NC(=O)CCC)C(=O)O)n1Cc1ccccc1Cl [Example 1, 3-[(2-Chlorophenyl)methyl]-2-propylthio-N-butyrylhistidine]
melting point: 178 to 181 °C

CCCCc1nc2cc(Br)cc(C(=O)O)c2n1Cc1ccccc1Cl [Example 4, 5-Bromo-2-n-butyl-1-(2-chlorophenyl)methyl-1H-benzimidazole-7-carboxylic Acid]
melting point: 254 to 255 °C

— patent US20020058686A1, “Medicament” (SmithKline Beecham p.l.c., priority 1990, published 2002)
